In data set [1] the test system is NCI-H522 Lung Cancer cell line. In words: MTT cell proliferation / cytotoxicity assay, NCI-H522. The format is cell-based, human. Particulars: for ED50 (in words): NCI-H522, MTT assay; for pEC50: MTT, read-out: Effective Dose 50 (ED50). How it is done:
(§1) Examples measuring the effectiveness of mer-[RuCl3(DMSO)(dmpyz)2 in treating two lines of cancer cells is presented herein. Lung Cancer Cell lines NCI-H522 and NCI-H23 from ATCC were grown in RPMI (growth medium) supplemented with 10% heat inactivated fetal bovine serum (FBS) along with penicillin and streptomycin. All cells were grown at humidified, carbon dioxide enriched atmosphere (+37° C. with 5% CO2).
(§2) NCI-H522 cells were seeded at 50,000 cells/well and NCI-H23 at 30,000cells/well in a 96-well microtiter plate in RPMI with 10% FBS. Cells were incubated at humidified atmosphere (+37° C. with 5% CO2) for overnight attachment. A mer-[RuCl3(DMSO)(dmpyz)2 drug along with the positive control drug Doxorubicin were used in following concentrations (100 μM, 33 μM, 11 μM, 3.7 μM, 1.2 μM, 0.4 μM per well of cells) and added in triplicates and incubated for 3 time durations (24 hrs,48 hrs,72 hrs) at humidified atmosphere (37° C. with 5% CO2). Thereafter the cells were treated with 10 μl (final concentration 0.5 mg/ml) 3-(4,5-dimethylthiazol-2-yl)- 2,5-diphenyltetrazolium bromide (MTT, see Cell Proliferation Kit I MTT Roche: Cat No: 11465007001). The microplate were incubated for 4 hours in a humidified atmosphere (+37° C., 5% CO2). Four hours later 100 μl of solubilization solution (from Roche MTT kit) was added into each well. The plate were allowed to stand overnight in the incubator in a humidified atmosphere (+37° C., 5% CO2). The complete solubilization of the purple formazan crystals was check for and measure the absorbance of the samples using a microplate (ELISA) reader. The wavelength was measure for absorbance of the formazan product at 562 nm the reference wavelength used was 630 nm. Percentage viable cells were calculated as below. % viable cells=(ab of sample-ab of blank/ab control-ab blank) X100 % cytotoxicity or % inhibition=100−% viable cells
(§3) The Effective Dose 50 (ED50) was extrapolated from the dose-response graph. The drug concentration that reduced the viability of the cells by 50% (ED50) was determined by plotting data points over a concentration range and calculating values using PRISM program.
(§4) The MTT assay is used to measure cellular metabolic activity as an indicator of cell viability, proliferation and cytotoxicity. This colorimetric assay is based on the reduction of a yellow tetrazolium salt (3-(4,5-dimethylthiazol-2-yl)-2,5-diphenyltetrazolium bromide or MTT) to purple formazan crystals by metabolically active cells. Viable cells produce enzymes that convert yellow MTT to insoluble purple formazan. The more viable cells present in a sample, the more intense the purple color. This test is widely used in the in vitro evaluation of cytotoxic potency of drugs. In the present study we applied the MTT assay to evaluate the potency of mer-[RuC3(DMSO)(dmpyz)2 anti-cancer drug in various human lung cancer cell lines.
On the technique in general: Formazan colour is commonly taken as a measure of viable cells.

Data set [2] relates to NCI-H23 Lung Cancer cell line. Put plainly: MTT cell proliferation / cytotoxicity assay, NCI-H23. Particulars: for ED50 (in words): NCI-H23, MTT assay; for pEC50: MTT, read-out: Effective Dose 50 (ED50). The format is cell-based, human. How it is done: as §1, §2, §3, §4
The subject of data set [3] is H522 cell lines (NSCLC). In words: Ruthenium complex screening against cancer subtypes (FIG. 3). The format is cell-based. The text has this: Still, preliminary tests show promise that dosage of RuCl3(DMSO)(dmPyz)2 is effective against NSCLC subtypes. FIG. 3 is a table showing the results of Ruthenium complex screening conducted to test the efficacy of the current Ruthenium (III) complexes to various cancer subtypes.

pEC50, pIC50: −log10 of the molar value. Read-outs that look alike come from different tables or passages of the source.

Turning to `COc1cccc2c1C(=O)c1c(O)c3c(c(O)c1C2=O)C[C@@](O)(C(=O)CO)C[C@@H]3O[C@H]1C[C@H](N)[C@H](O)[C@H](C)O1` [doxorubicin, Doxorubicin, reference compound], the “ED50 (in words)” value in data set [1] and in data set [2] was “comparable to published data” in each case.

One may read the pIC50 as −log10 of the IC50, conventionally taken in molar units. Read a low pIC50 as a large IC50. With mer-[RuCl3(DMSO)(dmpyz)2, the cytotoxic response entry in data set [1] (H522 cell lines, 33 μM concentration) is on record as “highly toxic”; in data set [2] (H23 cell lines, 100 μM concentration), “highly toxic”. For the same molecule, the pEC50 in data set [1] (NCI-H522, 24 hrs treatment) is 4.09; in data set [1] (NCI-H522, 48 hrs treatment), 4.93; in data set [1] (NCI-H522, 72 hrs treatment), 4.90; in data set [2] (NCI-H23, 24 hrs treatment) it was 4.09; in data set [2] (NCI-H23, 48 hrs treatment), 4.11; in data set [2] (NCI-H23, 72 hrs treatment) it was 4.23. Besides, the “ED50 (in words)” value in data set [1] and in data set [2] was “modest micromolar” each time. The cell viability entry in data set [1] (NCI-H522, drug concentration 33 μM or more) was “reduces to zero”; in data set [2] (NCI-H23, drug concentration 100 μM), “reduces to zero”. The pIC50 in data set [3] (suggested from 97% inhibition at 10 micromole) is greater than 5.00. In addition, the “inhibition of NSCLC” value in data set [3] (treatment of 10 micromole (M) purified, preliminary tests) is listed as 97%.
